Measured values taken from US12485080B2, “Cosmetic compositions” (Mary Kay Inc., priority 2011, dated 2025).

Experiments:
[1] = test system: collagen I; assay: Immunofluorescent staining of cultured human fibroblasts for dermal matrix proteins: collagen I; assay type: cell-based; details: immunofluorescent antibodies, compared to untreated controls
[2] = test system: fibronectin; assay: Secretion of fibronectin; assay type: cell-based; details: compared to untreated controls
[3] = test system: collagen III; assay: Immunofluorescent staining of cultured human fibroblasts for dermal matrix proteins: collagen III; assay type: cell-based; details: immunofluorescent antibodies, compared to untreated controls
[4] = test system: hyaluronic acid; assay: Hyaluronic acid production/secretion in cultured human dermal fibroblasts; assay type: cell-based; details: compared to an untreated control
Method: In this study, tetradecyl aminobutyroylvalylamino butyric urea trifluoroacetate (SYN-HYCAN™ from Pentapharm/DSM) was replaced with Alpinia galanga leaf extract (HYALUFIX™ GL from BASF). Therefore, the combination of tripeptide-1 (KOLLAREN® from Unipex/Lucas Meyer), Centella asiatica stem cells (CENTELLA ASIATIC STEMS G™ from Ricerche Biotecnologiche), and Alpinia galanga leaf extract (HYALUFIX™ GL from BASF) was tested on skin at various levels in various dermatologically acceptable vehicles. The following includes data concerning these tests. Further, an in vitro assay was performed on Alpinia galanga leaf extract using cultured human dermal fibroblasts.

[5] = test system: laminin; assay: Secretion of laminin; assay type: cell-based; details: compared to untreated controls
[6] = test system: elastin fibers; assay: Immunofluorescence study of elastin fibers; assay type: cell-based, human; details: immunofluorescence studies

Substance	increase in collagen I [1]	increase in secretion of fibronectin [2]	increase in collagen III [3]	increase in production of hyaluronic acid secretion [4]	increase in secretion of laminin [5]	increase in elastin fibers [6]
Tripeptide-1	305%	105%	105%	118%	85%	15%
Tetradecyl aminobutyroylvalylamino butyric urea trifluoroacetate				64.2%		
